Measured values as given in patent USRE39591E1, “6-O-substituted ketolides having antibacterial activity” (Abbott Laboratories, priority 1996, dated 2007).
Converted amounts (≈) assume the structure as drawn.

Tested on: up to 32 different microorganisms
Test: in vitro antibacterial activity (MIC), agar dilution on Brain Heart Infusion (BHI) agar with Steers replicator
Format: cell-based
Settings: unit assumed
Method in brief: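 Agar dilution, 12 plates/compound; inoc 1:100 (1:10 Micrococcus, Streptococcus); 35°-37° C, 20–24 h. Erythromycin A reference plate plus drug-free growth controls at start and end. Endpoint = no growth/slight haze/sparse colonies.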

| Compound | MIC (organism code AA) [µg/mL] | MIC (organism code BB) [µg/mL] | MIC (organism code CC) [µg/mL] | MIC (organism code DD) [µg/mL] | MIC (organism code EE) [µg/mL] | MIC (organism code FF) [µg/mL] | MIC (organism code GG) [µg/mL] | MIC (organism code HH) [µg/mL] | MIC (organism code II) [µg/mL] | MIC (organism code JJ) [µg/mL] | MIC (organism code KK) [µg/mL] | MIC (organism code LL) [µg/mL] | MIC (organism code MM) [µg/mL] | MIC (organism code NN) [µg/mL] | MIC (organism code OO) [µg/mL] | MIC (organism code PP) [µg/mL] | MIC (organism code QQ) [µg/mL] | MIC (organism code RR) [µg/mL] | MIC (organism code SS) [µg/mL] | MIC (organism code TT) [µg/mL] | further results |
| --- | --- | --- | --- | --- | --- | --- | --- | --- | --- | --- | --- | --- | --- | --- | --- | --- | --- | --- | --- | --- | --- |
| CCC(=O)OC1C(OC2C(C)C(=O)C(C)C(=O)OC(CC)C3(C)OC(=O)NC3C(C)C(=O)C(C)CC2(C)OCC=Cc2cnc3ccccc3c2)OC(C)CC1N(C)C (stereo not drawn) [Example 244, Compound of Formula (III): R^c is propanoyl, L is CO, T is NH, R is —CH2CH═CH(3-quinolyl)] | 0.1 | 0.2 | > 100 | 0.2 | 0.2 | 0.1 | > 100 | 0.2 | 0.05 | 0.01 | ≤ 0.005 | 0.02 | 1.56 | 0.2 | 0.02 | 0.2 | 50 | 0.1 | 25 | > 100 | MIC (organism code UU): 0.78 µg/mL; MIC (organism code VV): 0.02 µg/mL; MIC (organism code WW): 2 µg/mL; MIC (organism code XX): 0.03 µg/mL; MIC (organism code YY): 0.03 µg/mL; MIC (organism code ZZ): 64 µg/mL; MIC (organism code ZZA): 0.5 µg/mL |
| CC[C@H]1OC(=O)[C@H](C)C(=O)[C@H](C)[C@@H](O[C@@H]2O[C@H](C)C[C@H](N(C)C)[C@H]2O)[C@@](C)(OCC#Cc2ccc3ccccc3c2)C[C@@H](C)C(=O)[C@H](C)[C@H]2NC(=O)O[C@@]21C [Example 251, Compound of Formula (IX): L is CO, T is NH, R is —CH2—C≡C-(2-naphthyl)] | 0.1 | 0.1 | > 100 | 0.1 | 0.1 | 0.1 | > 100 | 0.1 | 0.1 | 0.02 | 0.05 | 0.05 | 6.2 | 0.2 | 0.02 | 0.2 | > 100 | 1.56 | > 100 | > 100 | MIC (organism code UU): 0.2 µg/mL; MIC (organism code VV): 0.05 µg/mL; MIC (organism code WW): 16 µg/mL; MIC (organism code XX): 0.125 µg/mL; MIC (organism code YY): 0.25 µg/mL; MIC (organism code ZZ): > 128 µg/mL; MIC (organism code ZZA): 1 µg/mL |
| CC[C@H]1OC(=O)[C@H](C)C(=O)[C@H](C)[C@@H](O[C@@H]2O[C@H](C)C[C@H](N(C)C)[C@H]2O)[C@@](C)(OCC#Cc2ccccc2)C[C@@H](C)C(=O)[C@H](C)[C@H]2NC(=O)O[C@@]21C [Example 249, Compound of Formula (IX): L is CO, T is NH, R is —CH2—C≡C-phenyl] | 0.1 | 0.1 | > 100 | 0.2 | 0.2 | 0.1 | > 100 | 0.1 | 0.05 | 0.01 | 0.02 | 0.02 | 100 | 0.1 | 0.01 | 0.1 | 100 | 0.39 | > 100 | > 100 | MIC (organism code UU): 0.39 µg/mL; MIC (organism code VV): 0.1 µg/mL; MIC (organism code WW): 4 µg/mL; MIC (organism code XX): 0.03 µg/mL; MIC (organism code YY): 0.03 µg/mL; MIC (organism code ZZ): > 128 µg/mL; MIC (organism code ZZA): 0.25 µg/mL |
| CCC1OC(=O)C(C)C(=O)C(C)C(OC2OC(C)CC(N(C)C)C2O)C(C)(OCC=Cc2cnc3c([N+](=O)[O-])cccc3c2)CC(C)C(=O)C(C)C2NC(=O)OC12C (stereo not drawn) [Example 211, R is —CH2CH═CH-(8-nitro-3-quinolyl)] | 0.05 (≈ 0.0617 µM) | 0.05 (≈ 0.0617 µM) | > 100 | 0.1 (≈ 0.123 µM) | 0.1 (≈ 0.123 µM) | 0.1 (≈ 0.123 µM) | > 100 | 0.05 (≈ 0.0617 µM) | 0.01 (≈ 0.0123 µM) | 0.01 (≈ 0.0123 µM) | 0.01 (≈ 0.0123 µM) | 0.01 (≈ 0.0123 µM) | 3.1 (≈ 3.82 µM) | 0.1 (≈ 0.123 µM) | 0.01 (≈ 0.0123 µM) | 0.1 (≈ 0.123 µM) | 25 (≈ 30.8 µM) | 0.2 (≈ 0.247 µM) | 50 (≈ 61.7 µM) | > 100 | MIC (organism code UU): 0.39 µg/mL (≈ 0.481 µM); MIC (organism code VV): 0.05 µg/mL (≈ 0.0617 µM); MIC (organism code WW): 2 µg/mL (≈ 2.47 µM); MIC (organism code XX): ≤ 0.004 µg/mL; MIC (organism code YY): ≤ 0.004 µg/mL; MIC (organism code ZZ): 16 µg/mL (≈ 19.7 µM); MIC (organism code ZZA): 0.25 µg/mL (≈ 0.308 µM) |
| CCC1OC(=O)C(C)C(=O)C(C)C(OC2OC(C)CC(N(C)C)C2O)C(C)(OCC=Cc2ccc3[nH]c4ccccc4c3c2)CC(C)C(=O)C(C)C2NC(=O)OC12C (stereo not drawn) [Example 204, R is —CH2CH═CH-(3-carbazolyl)] | 0.1 (≈ 0.124 µM) | 0.1 (≈ 0.124 µM) | > 100 | 0.1 (≈ 0.124 µM) | 0.1 (≈ 0.124 µM) | 0.1 (≈ 0.124 µM) | > 100 | 0.1 (≈ 0.124 µM) | 0.05 (≈ 0.0622 µM) | 0.01 (≈ 0.0124 µM) | 0.01 (≈ 0.0124 µM) | 0.01 (≈ 0.0124 µM) | 3.1 (≈ 3.86 µM) | 0.2 (≈ 0.249 µM) | 0.02 (≈ 0.0249 µM) | 0.1 (≈ 0.124 µM) | > 100 | 0.78 (≈ 0.97 µM) | > 100 | > 100 | MIC (organism code UU): 0.78 µg/mL (≈ 0.97 µM); MIC (organism code VV): 0.1 µg/mL (≈ 0.124 µM); MIC (organism code WW): 4 µg/mL (≈ 4.98 µM); MIC (organism code XX): 0.06 µg/mL (≈ 0.0746 µM); MIC (organism code YY): 0.06 µg/mL (≈ 0.0746 µM); MIC (organism code ZZ): 8 µg/mL (≈ 9.95 µM); MIC (organism code ZZA): 0.5 µg/mL (≈ 0.622 µM) |
